Values after ≈ are worked out from the molar mass of the structure shown.
Experiments:
[1] = Selectivity index, ratio of GI90 for human A549 cells to MIC90 for dormant state of Mycobacterium tuberculosis H37Ra; assay type: toxicity; settings: read-out: Selectivity Index
[2] = Selectivity index, ratio of GI90 for human MCF7 cells to MIC90 for dormant state of Mycobacterium tuberculosis H37Ra; assay type: toxicity; settings: read-out: Selectivity Index
[3] = Selectivity index, ratio of GI90 for human A549 cells to MIC90 for dormant state of dormant state of Mycobacterium bovis BCG; assay type: toxicity; settings: read-out: Selectivity Index
[4] = Selectivity index, ratio of GI90 for human HCT116 cells to MIC90 for dormant state of Mycobacterium tuberculosis H37Ra; assay type: toxicity; settings: read-out: Selectivity Index
[5] = tested on: Mycobacterium tuberculosis; assay: Antimycobacterial activity against dormant state of Mycobacterium tuberculosis H37Ra by two fold dilution method; assay type: functional
[6] = (§1) Cytotoxicity against human HCT116 cells assessed as growth inhibition after 48 hrs by MTT assay; assay type: cell-based, HCT-116; settings: HCT116 cells
HCT-116 = assay: as §1; assay type: cell-based; settings: hct-116, 48 h
[7] = (§2) Cytotoxicity against human MCF7 cells assessed as growth inhibition after 48 hrs by MTT assay; assay type: cell-based; settings: MCF7 cells
MCF7 = assay: as §2; assay type: cell-based; settings: mcf7, 48 h
[8] = (§3) Cytotoxicity against human A549 cells assessed as growth inhibition after 48 hrs by MTT assay; assay type: cell-based; settings: A549 cells
A549 = assay: as §3; assay type: cell-based; settings: a549, 48 h
[9] = Selectivity index, ratio of GI90 for human MCF7 cells to MIC90 for dormant state of dormant state of Mycobacterium bovis BCG; assay type: toxicity; settings: read-out: Selectivity Index
[10] = Selectivity index, ratio of GI90 for human HCT116 cells to MIC90 for dormant state of dormant state of Mycobacterium bovis BCG; assay type: toxicity; settings: read-out: Selectivity Index
Escherichia coli = assay: Antibacterial activity against Escherichia coli ATCC […] after 8 hrs; assay type: functional
[11] = tested on: Mycobacterium tuberculosis; assay: Antimycobacterial activity against dormant state of Mycobacterium tuberculosis H37Ra assessed as growth inhibition at 3 ug/ml after 12 days by XTT reduction menadione assay relative to control; assay type: functional; settings: 288 h, read-out: GI
[12] = Cytotoxicity against human MCF7 cells assessed as growth inhibition at 3 ug/ml after 48 hrs by MTT assay relative to control; assay type: cell-based; settings: read-out: GI
[13] = Cytotoxicity against human MCF7 cells assessed as growth inhibition at 30 ug/ml after 48 hrs by MTT assay relative to control; assay type: cell-based; settings: read-out: GI
[14] = Cytotoxicity against human HCT116 cells assessed as growth inhibition at 10 ug/ml after 48 hrs by MTT assay relative to control; assay type: cell-based, HCT-116; settings: read-out: GI
[15] = Cytotoxicity against human A549 cells assessed as growth inhibition at 10 ug/ml after 48 hrs by MTT assay relative to control; assay type: cell-based; settings: read-out: GI
[16] = Cytotoxicity against human HCT116 cells assessed as growth inhibition at 30 ug/ml after 48 hrs by MTT assay relative to control; assay type: cell-based, HCT-116; settings: read-out: GI
[17] = tested on: Mycobacterium tuberculosis; assay: Antimycobacterial activity against dormant state of Mycobacterium tuberculosis H37Ra assessed as growth inhibition at 30 ug/ml after 12 days by XTT reduction menadione assay relative to control; assay type: functional; settings: 288 h, read-out: GI
Bacillus subtilis = assay: Antibacterial activity against Bacillus subtilis ATCC 23857 after 12 hrs; assay type: functional; settings: ATCC 23857, 12 h
[18] = Cytotoxicity against human MCF7 cells assessed as growth inhibition at 10 ug/ml after 48 hrs by MTT assay relative to control; assay type: cell-based; settings: read-out: GI
Pseudomonas fluorescens = assay: Antibacterial activity against Pseudomonas fluorescens ATCC 13525 after 8 hrs; assay type: functional; settings: ATCC 13525, 8 h
[19] = Cytotoxicity against human A549 cells assessed as growth inhibition at 30 ug/ml after 48 hrs by MTT assay relative to control; assay type: cell-based; settings: read-out: GI
Staphylococcus aureus = assay: Antibacterial activity against Staphylococcus aureus ATCC 29213 after 12 hrs; assay type: functional; settings: ATCC 29213, 12 h
[20] = tested on: Mycobacterium tuberculosis; assay: Antimycobacterial activity against dormant state of Mycobacterium tuberculosis H37Ra assessed as growth inhibition at 10 ug/ml after 12 days by XTT reduction menadione assay relative to control; assay type: functional; settings: 288 h, read-out: GI
[21] = Cytotoxicity against human HCT116 cells assessed as growth inhibition at 3 ug/ml after 48 hrs by MTT assay relative to control; assay type: cell-based, HCT-116; settings: read-out: GI
[22] = Cytotoxicity against human A549 cells assessed as growth inhibition at 3 ug/ml after 48 hrs by MTT assay relative to control; assay type: cell-based; settings: read-out: GI

Row | SMILES | selectivity ratio [1] | selectivity ratio [2] | selectivity ratio [3] | selectivity ratio [4] | MIC50 [5] | MIC90 [5] | GI50 at 48 h [6] | GI90 (HCT-116) | GI50 at 48 h [7] | GI90 (MCF7) | GI50 at 48 h [8] | GI90 (A549) | selectivity ratio [9] | selectivity ratio [10] | MIC50 (Escherichia coli) | MIC90 (Escherichia coli) | inhibition of growth at 3 µg/mL [11] | inhibition at 48 h, 3 ug/ml [12] | inhibition at 48 h, 30 ug/ml [13] | inhibition at 48 h, 10 ug/ml [14] | also measured
1 | CO[C@H]1/C=C/O[C@@]2(C)Oc3c(C)c(O)c4c(O)c(c(/C=N/N5CCN(C)CC5)c(O)c4c3C2=O)NC(=O)/C(C)=C\C=C\[C@H](C)[C@H](O)[C@@H](C)[C@@H](O)[C@@H](C)[C@H](OC(C)=O)[C@@H]1C [RIFAMPIN] | > 133 | > 133 | > 123 | > 133 | 0.0019 µg/mL (≈ 0.00231 µM) | 0.02 µg/mL (≈ 0.0243 µM) | > 100 µg/mL | > 100 µg/mL | > 100 µg/mL | > 100 µg/mL | > 100 µg/mL | > 100 µg/mL | > 123 | > 123 |  |  |  |  |  |  | 
2 | CN1C/C(=C\c2cc3ccccc3nc2Cl)C(=O)/C(=C/c2cc3ccccc3nc2Cl)C1 | > 3 | > 3 | > 13 | > 3 | 6.7 µg/mL (≈ 14.6 µM) | 26.5 µg/mL (≈ 57.6 µM) | > 100 µg/mL | > 100 µg/mL | > 100 µg/mL | > 100 µg/mL | > 100 µg/mL | > 100 µg/mL | > 13 | > 13 | > 30 µg/mL | > 30 µg/mL | 15.6% | 11.4% | 35.1% | -15.2% | inhibition at 48 h, 10 ug/ml [15]: 0%; inhibition at 48 h, 30 ug/ml [16]: -20.1%; inhibition of growth at 30 µg/mL [17]: 98%; MIC50 (Bacillus subtilis): > 30 µg/mL; MIC90 (Bacillus subtilis): > 30 µg/mL; inhibition at 48 h, 10 ug/ml [18]: 24.3%; MIC50 (Pseudomonas fluorescens): > 30 µg/mL; MIC90 (Pseudomonas fluorescens): > 30 µg/mL; inhibition at 48 h, 30 ug/ml [19]: -16.9%; MIC50 (Staphylococcus aureus): > 30 µg/mL; MIC90 (Staphylococcus aureus): > 30 µg/mL; inhibition of growth at 10 µg/mL [20]: 51.9%; inhibition at 48 h, 3 ug/ml [21]: -0.3%; inhibition at 48 h, 3 ug/ml [22]: -14.6%
3 | O=C1/C(=C/c2cc3cc(F)ccc3nc2Cl)CNC/C1=C\c1cc2cc(F)ccc2nc1Cl | > 3 | > 3 | > 10 | > 3 | 13.7 µg/mL (≈ 28.4 µM) | > 30 µg/mL | 27.6 µg/mL (≈ 57.1 µM) | > 100 µg/mL | > 100 µg/mL | > 100 µg/mL | > 100 µg/mL | > 100 µg/mL | > 10 | > 10 | > 30 µg/mL | > 30 µg/mL | 41.1% | 40.9% | 48.5% | 45.3% | inhibition at 48 h, 10 ug/ml [15]: 0%; inhibition at 48 h, 30 ug/ml [16]: 55.8%; inhibition of growth at 30 µg/mL [17]: 76.9%; MIC50 (Bacillus subtilis): > 30 µg/mL; MIC90 (Bacillus subtilis): > 30 µg/mL; inhibition at 48 h, 10 ug/ml [18]: 41.1%; MIC50 (Pseudomonas fluorescens): > 30 µg/mL; MIC90 (Pseudomonas fluorescens): > 30 µg/mL; inhibition at 48 h, 30 ug/ml [19]: 0%; MIC50 (Staphylococcus aureus): > 30 µg/mL; MIC90 (Staphylococcus aureus): > 30 µg/mL; inhibition of growth at 10 µg/mL [20]: 49%; inhibition at 48 h, 3 ug/ml [21]: 35%; inhibition at 48 h, 3 ug/ml [22]: -5.8%
4 | CN1C/C(=C\c2cc3cc(Cl)ccc3nc2Cl)C(=O)/C(=C/c2cc3cc(Cl)ccc3nc2Cl)C1 |  |  |  |  | > 30 µg/mL | > 30 µg/mL | > 100 µg/mL | > 100 µg/mL | 29.8 µg/mL (≈ 56.3 µM) | > 100 µg/mL | > 100 µg/mL | > 100 µg/mL |  |  | > 30 µg/mL | > 30 µg/mL | 35.4% | 22.8% | 58.7% | 11.9% | inhibition at 48 h, 10 ug/ml [15]: 48.9%; inhibition at 48 h, 30 ug/ml [16]: 11.7%; inhibition of growth at 30 µg/mL [17]: 43.1%; MIC50 (Bacillus subtilis): > 30 µg/mL; MIC90 (Bacillus subtilis): > 30 µg/mL; inhibition at 48 h, 10 ug/ml [18]: 42.8%; MIC50 (Pseudomonas fluorescens): > 30 µg/mL; MIC90 (Pseudomonas fluorescens): > 30 µg/mL; inhibition at 48 h, 30 ug/ml [19]: 48.9%; MIC50 (Staphylococcus aureus): > 30 µg/mL; MIC90 (Staphylococcus aureus): > 30 µg/mL; inhibition of growth at 10 µg/mL [20]: 7.2%; inhibition at 48 h, 3 ug/ml [21]: 2%; inhibition at 48 h, 3 ug/ml [22]: 0%
